Data published in ChEMBL document CHEMBL5380808, “Design, Synthesis, and Biological Activity of Marinacarboline Analogues as STAT3 Pathway Inhibitors for Docetaxel-Resistant Triple-Negative Breast Cancer” (J Med Chem, 2023).
pIC50: −log10 of the molar value. Active and inactive are the calls of the source. No cut-off for these calls is given here.

What was measured:
[1] = test system: MDA-MB-231; experiment: Antiproliferative activity against human MDA-MB-231 cells assessed as reduction in cell viability incubated for 72 hrs by sulforhodamine B assay; assay type: functional, cell-based; conditions: MDA-MB-231, 72 h
[2] = Cytotoxicity against human MRC5 cells assessed as reduction in cell viability incubated for 72 hrs by sulforhodamine B assay; assay type: toxicity, cell-based
[3] = Selectivity index, ratio of IC50 for cytotoxicity against human MRC5 cells to IC50 for antiproliferative activity against human MDA-MB-231 cells; assay type: toxicity, cell-based; conditions: MRC5 cells and MDA-MB-231 cells, read-out: Ratio IC50
[4] = biological target: Signal transducer and activator of transcription 3 (Homo sapiens) (UniProt P40763); experiment: Inhibition of STAT3 phosphorylation at Y705 residue in human MDA-MB-231 cells assessed as decrease in phosphorylated STAT3 level at 5 uM incubated for 24 hrs by Western blot analysis; assay type: cell-based
[5] = Antiproliferative activity against docetaxel-resistant human MDA-MB-231-DTR cells assessed as reduction in cell viability incubated for 72 hrs by sulforhodamine B assay; assay type: functional, cell-based; conditions: MDA-MB-231, 72 h

Sequence of Signal transducer and activator of transcription 3 (Homo sapiens) (P40763 whole entry): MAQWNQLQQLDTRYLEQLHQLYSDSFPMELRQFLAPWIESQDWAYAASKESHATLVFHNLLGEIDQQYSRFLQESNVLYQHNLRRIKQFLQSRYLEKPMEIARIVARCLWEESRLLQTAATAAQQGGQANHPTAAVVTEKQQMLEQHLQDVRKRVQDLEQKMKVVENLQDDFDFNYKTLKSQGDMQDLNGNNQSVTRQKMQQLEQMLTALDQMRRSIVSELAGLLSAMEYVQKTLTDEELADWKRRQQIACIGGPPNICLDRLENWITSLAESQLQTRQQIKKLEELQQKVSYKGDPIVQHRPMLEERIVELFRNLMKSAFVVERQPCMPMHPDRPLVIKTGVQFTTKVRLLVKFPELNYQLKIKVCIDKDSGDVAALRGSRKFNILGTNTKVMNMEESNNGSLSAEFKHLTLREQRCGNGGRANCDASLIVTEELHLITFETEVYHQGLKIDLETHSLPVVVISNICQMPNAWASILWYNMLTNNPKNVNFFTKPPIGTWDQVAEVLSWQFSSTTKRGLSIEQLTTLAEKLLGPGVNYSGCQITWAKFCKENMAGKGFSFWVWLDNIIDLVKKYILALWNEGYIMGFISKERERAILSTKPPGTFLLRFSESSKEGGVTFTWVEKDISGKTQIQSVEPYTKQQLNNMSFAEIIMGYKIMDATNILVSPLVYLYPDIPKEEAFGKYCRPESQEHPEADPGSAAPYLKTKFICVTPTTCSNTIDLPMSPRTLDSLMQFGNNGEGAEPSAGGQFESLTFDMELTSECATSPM

SMILES	pIC50 [1]	IC50 at 72 h [2] [µM]	selectivity ratio [3]	inhibition [4]	pIC50 [5]
CC(=O)c1nc(C(=O)NCCc2c(C)[nH]c3ccccc23)cc2c1[nH]c1ccccc12	4.95	41.9	3.71		
CC(=O)c1nc(C(=O)NCCCO)cc2c1[nH]c1ccccc12	4.78	41.2	2.5		
O=C(NCCc1c[nH]c2ccccc12)c1cc2c([nH]c3ccccc32)c(C(=O)c2ccc(Cl)cc2)n1	4.83	> 50	> 3.4		
CC(=O)c1nc(C(=O)NCc2ccc(Cl)cc2)cc2c1[nH]c1ccccc12	4.32	> 50	> 1.04		
CNC(=O)c1cc2c([nH]c3ccccc32)c(C(C)=O)n1	< 4.30	> 50			
CC(=O)c1nc(C(=O)NCCCc2c[nH]c3ccccc23)cc2c1[nH]c1ccccc12	< 4.30	> 50			
O=C(NCc1ccc(O)cc1)c1cc2c([nH]c3ccccc32)c(C(=O)c2ccc(Br)cc2)n1	< 4.30	> 50			
CC(=O)c1nc(C(=O)NCc2ccccc2)cc2c1[nH]c1ccccc12	< 4.30	> 50			
O=C(NCCc1c[nH]c2ccccc12)c1cc2c([nH]c3ccccc32)c(-c2ccc(O)cc2)n1	5.25	46.3	8.15		
CC(=O)c1nc(C(=O)N(Cc2ccccc2)Cc2ccccc2)cc2c1[nH]c1ccccc12	4.68	> 50	> 2.4		
O=C(NCc1ccc(O)cc1)c1cc2c([nH]c3ccccc32)c(C(=O)c2ccc(O)cc2)n1	< 4.30	> 50			
CC(=O)c1nc(C(=O)O)cc2c1[nH]c1ccccc12	< 4.30	> 50			
CC(=O)c1nc(C(=O)NCc2ccc(F)cc2)cc2c1[nH]c1ccccc12	4.61	> 50	> 2.02		
O=C(NCCc1c[nH]c2ccccc12)c1cc2c([nH]c3ccccc32)c(C(=O)c2ccc(O)cc2)n1	5.17	39.3	5.76	Active	5.18
CC(=O)c1nc(C(=O)NC(C)C)cc2c1[nH]c1ccccc12	4.43	> 50	> 1.34		
CC(=O)c1nc(C(=O)Nc2ccccc2)cc2c1[nH]c1ccccc12	< 4.30	> 50			
Cc1ccc(-c2nc(C(=O)NCCc3c[nH]c4ccccc34)cc3c2[nH]c2ccccc23)cc1	5.16	42	6.1		
CC(=O)c1nc(C(=O)NCc2c[nH]c3ccccc23)cc2c1[nH]c1ccccc12	4.85	> 50	> 3.51		
CC(=O)c1nc(C(=O)NCCCN(C)C)cc2c1[nH]c1ccccc12	4.95	> 50	> 4.41		
CCCCNC(=O)c1cc2c([nH]c3ccccc32)c(C(C)=O)n1	< 4.30	> 50			
CC(=O)c1nc(C(=O)OCCc2c[nH]c3ccccc23)cc2c1[nH]c1ccccc12	5.02	38.3	4.02		5.07
O=C(NCCc1c[nH]c2ccccc12)c1cc2c([nH]c3ccccc32)c(-c2ccccc2)n1	4.72	> 50	> 2.6		
CC(=O)c1nc(C(=O)N(C)C)cc2c1[nH]c1ccccc12	< 4.30	> 50			
O=C(NCCc1c[nH]c2ccccc12)c1cc2c([nH]c3ccccc32)c(C(=O)c2cccc(Br)c2)n1	< 4.30	> 50			
Cc1ccc(C(=O)c2nc(C(=O)NCCc3c[nH]c4ccccc34)cc3c2[nH]c2ccccc23)cc1	5.08	41.2	4.98		

SMILES	pIC50 [1]	IC50 at 72 h [2] [µM]	selectivity ratio [3]	inhibition [4]	pIC50 [5]
CC(=O)c1nc(C(=O)NCc2ccccc2O)cc2c1[nH]c1ccccc12	4.99	38.3	3.7		
CC(=O)c1nc(C(=O)NCc2ccc(N)cc2)cc2c1[nH]c1ccccc12	4.79	> 50	> 3.07		4.81
CC(=O)c1nc(C(=O)NCc2ccc(O)cc2)cc2c1[nH]c1ccccc12	5.45	> 50	> 14.2		5.44
O=C(NCCc1c[nH]c2ccccc12)c1cc2c([nH]c3ccccc32)c(C(=O)c2ccccc2Br)n1	< 4.30	> 50			
CCCC(=O)c1nc(C(=O)NCCc2c[nH]c3ccccc23)cc2c1[nH]c1ccccc12	< 4.30	> 50			
COc1ccc2[nH]cc(CCNC(=O)c3cc4c([nH]c5ccccc54)c(C(C)=O)n3)c2c1	4.96	39.3	3.62		
CC(=O)c1nc(C(=O)NCCc2ccccc2)cc2c1[nH]c1ccccc12	< 4.30	> 50			
COc1ccc(NC(=O)c2cc3c([nH]c4ccccc43)c(C(C)=O)n2)cc1	< 4.30	> 50			
CCCN(CCC)C(=O)c1cc2c([nH]c3ccccc32)c(C(C)=O)n1	< 4.30	> 50			
CC(=O)c1nc(C(=O)NCCc2c[nH]c3ccccc23)cc2c1[nH]c1ccccc12 [MARINACARBOLINE D]	5.11	27.2	3.53		5.09
COc1cc([C@@H]2c3cc4c(cc3[C@@H](O[C@@H]3O[C@@H]5CO[C@@H](C)O[C@H]5[C@H](O)[C@H]3O)[C@H]3COC(=O)[C@H]23)OCO4)cc(OC)c1O [ETOPOSIDE]	5.44	13.5	3.68		
CC(=O)c1nc(C(=O)Nc2ccc(N)cc2)cc2c1[nH]c1ccccc12	4.97	> 50	> 4.63		
COC(=O)c1cc2c([nH]c3ccccc32)c(C(C)=O)n1	< 4.30	> 50			
O=C(NCCc1c[nH]c2ccccc12)c1cc2c([nH]c3ccccc32)c(C(=O)c2ccccc2)n1	4.67	31.9	1.5		
CC(=O)c1nc(C(=O)NCc2ccc(C#N)cc2)cc2c1[nH]c1ccccc12	< 4.30	> 50			
CC(=O)c1nc(C(=O)NCc2ccc(C(C)(C)C)cc2)cc2c1[nH]c1ccccc12	4.47	> 50	> 1.46		
COc1ccc(CNC(=O)c2cc3c([nH]c4ccccc43)c(C(C)=O)n2)cc1	4.77	> 50	> 2.97		
CC(=O)c1nc(C(=O)Nc2ccc(C(F)(F)F)cc2)cc2c1[nH]c1ccccc12	< 4.30	> 50			
COc1ccc(CCNC(=O)c2cc3c([nH]c4ccccc43)c(C(C)=O)n2)cc1 [MARINACARBOLINE A]	< 4.30	> 50			
CC(=O)c1nc(C(=O)NCc2cccc(O)c2)cc2c1[nH]c1ccccc12	4.56	> 50	> 1.81		
CC(=O)c1nc(C(=O)NCc2ccc3[nH]ccc3c2)cc2c1[nH]c1ccccc12	4.83	> 50	> 3.36		
CC(=O)c1nc(C(=O)NCCc2ccc(O)cc2)cc2c1[nH]c1ccccc12	< 4.30	> 50			
CC(=O)c1nc(C(=O)NCCc2c[nH]c3ccc(Cl)cc23)cc2c1[nH]c1ccccc12	5.23	36.5	6.14		
CC(=O)c1nc(C(=O)Nc2ccc3[nH]ccc3c2)cc2c1[nH]c1ccccc12	5.16	48.2	6.91		
O=C(NCCc1c[nH]c2ccccc12)c1cc2c([nH]c3ccccc32)c(-c2ccc(Br)cc2)n1	5.15	48.8	6.19	Active	5.17
